Data on 2 molecules can be found in paper PMC11356571, “The Comparative Metabolism of a Novel Hepatocellular Carcinoma Therapeutic Agent, 2,3-Diamino-N-(4-(benzo[d]thiazol-2-yl)phenyl)propanamide, in Human and Animal Hepatocytes” (Metabolites, 2024).

Assay type in all cases: in vitro ADME
One data set relates to monkey hepatocytes. As to the kind of experiment: Metabolite characterization in monkey hepatocytes. To be noted: monkey hepatocyte 1 h incubates of ETN101; ND:<1.2E+05 peak area. How it is done: (§1) We mixed 60 μL aliquots of 40 μM ETN101 in incubation medium and an equal volume of human, mouse, rat, dog, or monkey hepatocyte suspension in 96-well plates and incubated for 0 or 1 h in a CO2 incubator at 37 °C. The reactions were quenched by adding 120 µL of ice-cold acetonitrile to each well, and the cell suspension was sonicated for 5 min at 4 °C. Subsequently, centrifugation was carried out at 15,000× g for 10 min at 4 °C. Next, the supernatants were evaporated to dryness using a vacuum concentrator, and residues were re-dissolved in 70 μL of 30% acetonitrile. Each sample (5 μL aliquots) was analyzed using LC–HRMS system.
(§2) For metabolite characterization, a Vanquish HPLC system (Thermo Fisher Scientific, San José, CA, USA) coupled with a Q-Exactive Orbitrap mass spectrometer (Thermo Fisher Scientific Inc., Waltham, MA, USA) was used at Core Research Support Center for Natural Products and Medical Materials at Yeungnam University. […] The eluent from the column was directly injected into the mass spectrometer using a heated electrospray ionization (HESI) source in positive ionization mode. […] The spray voltage was 3.0 kV and the capillary temperature was 320 °C. Full scan MS^1 with a data-dependent MS^2 acquisition mode was applied to obtain MS^1 scan data ranging from m/z 80 to 900, at a resolution of 70,000, whereas data-dependent MS^2 spectra were acquired for the five most abundant peaks per cycle at a resolution of 35,000. The parallel reaction monitoring (PRM) mode was used to obtain the MS^2 spectra of putative metabolites detected at low peak intensities in the data-dependent MS^2 acquisition mode. Data were collected and interpreted using Thermo Scientific Xcalibur™ Software (Thermo Fisher Scientific).

The next data set addresses T1, CES1b (Homo sapiens, UniProt P23141).
T1 construct: purchased Corning Life Sciences (Woburn, MA, USA)
T1 sequence (P23141 18-567): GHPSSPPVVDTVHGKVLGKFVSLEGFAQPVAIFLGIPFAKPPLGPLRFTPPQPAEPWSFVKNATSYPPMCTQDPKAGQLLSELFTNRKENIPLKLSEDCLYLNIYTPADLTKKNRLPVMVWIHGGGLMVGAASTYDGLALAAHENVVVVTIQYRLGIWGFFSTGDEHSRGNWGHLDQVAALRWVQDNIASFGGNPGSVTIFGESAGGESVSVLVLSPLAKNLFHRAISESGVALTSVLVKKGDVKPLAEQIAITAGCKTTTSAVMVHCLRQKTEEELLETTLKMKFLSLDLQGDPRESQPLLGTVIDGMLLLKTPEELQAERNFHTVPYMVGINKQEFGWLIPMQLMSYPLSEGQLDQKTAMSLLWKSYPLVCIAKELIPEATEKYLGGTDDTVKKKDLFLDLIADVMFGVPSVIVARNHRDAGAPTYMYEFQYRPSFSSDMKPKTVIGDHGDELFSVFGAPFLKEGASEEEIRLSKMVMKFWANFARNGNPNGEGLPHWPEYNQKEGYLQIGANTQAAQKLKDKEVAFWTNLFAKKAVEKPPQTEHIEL
Description: Incubation with human recombinant CES1b. Particulars: 60 min at 37 °C, ETN101 10 μM or M1 1 μM. How it is done: To screen for CES enzymes responsible for the hydrolysis of ETN101 or M1, 50 μL of reaction mixtures containing human cDNA-expressed CES enzymes (CES1b, CES1c, and CES2) at the concentration of 1 mg/mL, 10 μM ETN101, or 1 μM M1 in 0.1 M potassium phosphate buffer were incubated at 37 °C for 0 min or 60 min in triplicate. The reactions were quenched by adding 50 μL of ice-cold acetonitrile containing the internal standard (camptothecin, 10 μg/mL). Following centrifugation at 13,000 rpm for 5 min, a 2 μL aliquot of the supernatant was injected into the LC-MS/MS system.
(§3) The mobile phases comprised 0.1% (v/v) formic acid in water (mobile phase A) and 0.1% formic acid (v/v) in acetonitrile (mobile phase B). […] The column and auto-sampler were maintained at 40 °C and 4 °C, respectively. ETN101, M1, and M2 were detected via MRM using ESI in the positive mode. […] Mass Hunter software (Agilent Technologies) was used to control the LC-MS/MS instrument and for data processing.

In a further data set the test system is mouse hepatocytes. As to the kind of experiment: Metabolite characterization in mouse hepatocytes. Particulars: mouse hepatocyte 1 h incubates of ETN101; ND:<1.2E+05 peak area. The procedure:
as §1, §2

In a further data set the target is T2, CYP2C9 (Homo sapiens, UniProt P11712).
T2 construct: purchased Corning Life Sciences (Woburn, MA, USA)
T2 sequence (P11712 whole entry): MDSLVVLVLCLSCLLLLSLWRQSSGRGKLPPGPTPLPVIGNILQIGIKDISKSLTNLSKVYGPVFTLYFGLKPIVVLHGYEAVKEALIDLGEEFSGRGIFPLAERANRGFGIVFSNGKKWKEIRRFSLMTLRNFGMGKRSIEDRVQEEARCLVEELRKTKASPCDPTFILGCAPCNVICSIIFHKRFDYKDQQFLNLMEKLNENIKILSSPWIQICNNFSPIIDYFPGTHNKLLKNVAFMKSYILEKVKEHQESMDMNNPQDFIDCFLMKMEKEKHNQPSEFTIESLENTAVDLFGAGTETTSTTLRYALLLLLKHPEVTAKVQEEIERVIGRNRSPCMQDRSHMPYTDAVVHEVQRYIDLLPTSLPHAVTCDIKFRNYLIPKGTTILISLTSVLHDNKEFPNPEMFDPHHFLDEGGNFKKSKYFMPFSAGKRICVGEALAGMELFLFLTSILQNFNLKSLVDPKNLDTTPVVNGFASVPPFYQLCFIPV
As to the kind of experiment: Incubation with human cDNA-expressed CYP2C9. To be noted: CYP2C9, 30 min at 37 °C with NADPH; ETN101 10 μM or M1 1 μM; diclofenac positive control. How it is done:
as §3

On to `NCC(N)C(=O)Nc1ccc(-c2nc3ccccc3s2)cc1` (centres unmarked) [ETN101, 2,3-diamino-N-(4-(benzo[d]thiazol-2-yl)phenyl)propanamide], for which the “Relative peak area (%)” value in the data set with monkey hepatocytes came out at 69.0%; with mouse hepatocytes, 26.8%. In addition, the Percentage remaining was 98.6% at CES1b and 110.8% on CYP2C9.

Consider `Nc1ccc(-c2nc3ccccc3s2)cc1` [M1, 2-(4-aminophenyl)benzothiazole], for which the “Relative peak area (%)” value with monkey hepatocytes turned out to be 21.5%; with mouse hepatocytes, 71.8%. In addition, the Percentage remaining at CES1b is recorded as 99.6%; at CYP2C9, 80.1%.
